# Laboratory results from patent US20230295130A1, “COMPOUND USEFUL AS CDK7 KINASE INHIBITOR AND USE THEREOF” (TYK MEDICINES, INC., priority 2020, published 2023).
# Biological target: CDK7/Cyclin H/MAT1 kinase (Homo sapiens (Human), UniProt P50613)
# Experiment: Enzyme activity test, mobility shift assay (Table 3)
# Assay type: biochemical
# Conditions: 2 mM ATP, pre-incubated 0 and 60 minutes
# Protocol: IC50 values of the compounds for CDK7 kinase were detected in Wuxi Biortus Biosciences Co. Ltd.
# The compound powder was dissolved in 100% DMSO to prepare a 10 mM storage solution. The storage solution was further diluted to 0.5 mM as the initial concentration, and continuously diluted 3 times to obtain 10 compound solutions with different concentrations. The compound and enzyme were pre-incubated for 0 minutes and 60 minutes, respectively, using duplicate detection.
# was used as a positive control, using Mobility shift say method, to detect CDK kinase (such as CDK7, CDK9, CDK12 and CDK2) activity of the compound.
# CDK7/Cyclin H/MAT1 kinase, sequence (P50613 whole entry): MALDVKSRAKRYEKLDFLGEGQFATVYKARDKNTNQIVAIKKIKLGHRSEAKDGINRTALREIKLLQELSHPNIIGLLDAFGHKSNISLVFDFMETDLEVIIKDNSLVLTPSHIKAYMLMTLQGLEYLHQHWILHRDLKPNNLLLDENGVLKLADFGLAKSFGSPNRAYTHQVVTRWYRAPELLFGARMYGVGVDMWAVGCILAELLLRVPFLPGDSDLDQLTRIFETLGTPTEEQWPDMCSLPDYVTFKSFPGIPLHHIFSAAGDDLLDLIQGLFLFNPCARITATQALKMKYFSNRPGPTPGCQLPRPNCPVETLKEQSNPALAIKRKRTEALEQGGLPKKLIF
# CDK7/Cyclin H/MAT1 kinase, sequence (P51946 whole entry partner): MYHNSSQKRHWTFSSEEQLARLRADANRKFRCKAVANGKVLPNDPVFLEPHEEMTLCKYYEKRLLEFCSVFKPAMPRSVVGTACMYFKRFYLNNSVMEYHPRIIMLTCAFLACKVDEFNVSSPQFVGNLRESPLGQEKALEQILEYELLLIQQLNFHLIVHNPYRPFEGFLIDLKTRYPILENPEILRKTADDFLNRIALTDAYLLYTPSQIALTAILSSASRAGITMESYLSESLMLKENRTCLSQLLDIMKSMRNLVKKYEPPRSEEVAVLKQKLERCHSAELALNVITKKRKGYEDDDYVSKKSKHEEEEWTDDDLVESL
# CDK7/Cyclin H/MAT1 kinase, sequence (P51948 whole entry partner): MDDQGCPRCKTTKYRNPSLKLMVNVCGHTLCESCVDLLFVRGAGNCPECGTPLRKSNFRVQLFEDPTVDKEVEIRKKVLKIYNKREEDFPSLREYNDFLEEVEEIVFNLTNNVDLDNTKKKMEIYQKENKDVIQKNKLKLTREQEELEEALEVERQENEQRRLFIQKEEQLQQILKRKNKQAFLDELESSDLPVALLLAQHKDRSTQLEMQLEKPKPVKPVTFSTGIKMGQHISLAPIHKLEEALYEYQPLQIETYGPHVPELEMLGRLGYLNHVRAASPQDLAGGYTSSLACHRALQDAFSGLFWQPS
row,IC50 [nM],Structure (SMILES)
1,< 10,CC1(C)CC[C@H](Nc2ncc(C(F)(F)F)c(-c3c[nH]c4c(P(C)(C)=O)c(N5CCCCC5=O)ccc34)n2)CN1 [Example 02]
2,10 to 500,Cc1cc(Nc2ncc(C(F)(F)F)c(-c3c[nH]c4cc(C#N)ccc34)n2)n[nH]1 [Example 12]
3,< 10,CC1(C)CC[C@H](Nc2ncc(C(F)(F)F)c(-c3c[nH]c4c(S(=O)(=O)C5CCCC5)c(C#N)ccc34)n2)CN1 [Example 23]
4,10 to 500,CC1(C)CC[C@H](Nc2nc(-c3c[nH]c4c(P(C)(C)=O)c(C#N)ccc34)c3ccccc3n2)CN1 [Example 24]
5,< 10,Cc1cc(Nc2ncc(C(F)(F)F)c(-c3c[nH]c4c(P(C)(C)=O)c(C#N)ccc34)n2)n[nH]1 [Example 28]
6,< 10,COC(=O)N[C@H]1CCC[C@@H](Nc2ncc(C(F)(F)F)c(-c3c[nH]c4c(P(C)(C)=O)c(C#N)ccc34)n2)C1 [Example 66]
